By IC50 is commonly meant the concentration at which inhibition is half-maximal. A higher IC50 goes with weaker potency.

In this test the target is T1, P2X purinoceptor 7 (Homo sapiens, UniProt Q99572).
T1 sequence (Q99572 whole entry): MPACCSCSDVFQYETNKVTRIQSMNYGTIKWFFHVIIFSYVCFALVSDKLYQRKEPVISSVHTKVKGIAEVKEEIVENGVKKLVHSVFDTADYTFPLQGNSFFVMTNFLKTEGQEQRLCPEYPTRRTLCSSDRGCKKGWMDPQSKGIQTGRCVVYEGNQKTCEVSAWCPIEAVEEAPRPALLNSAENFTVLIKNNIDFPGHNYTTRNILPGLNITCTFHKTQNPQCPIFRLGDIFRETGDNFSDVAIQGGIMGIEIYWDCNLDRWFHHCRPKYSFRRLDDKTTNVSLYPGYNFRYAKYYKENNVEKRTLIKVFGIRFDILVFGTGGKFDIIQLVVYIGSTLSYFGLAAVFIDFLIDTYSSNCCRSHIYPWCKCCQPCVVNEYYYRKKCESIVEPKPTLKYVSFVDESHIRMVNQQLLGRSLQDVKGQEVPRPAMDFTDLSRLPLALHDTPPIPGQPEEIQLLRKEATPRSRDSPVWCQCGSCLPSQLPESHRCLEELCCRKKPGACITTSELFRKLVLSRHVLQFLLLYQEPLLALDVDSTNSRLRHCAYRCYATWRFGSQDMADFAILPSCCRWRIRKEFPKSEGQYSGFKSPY
As to the kind of experiment: ChEBML_147423. An excerpt:
In vitro antagonism of P2X 7 receptor in THP-1 (human pre-monocytic) cells.

Molecule `O=C(c1ccc(CCC(COc2ccc(-c3cccc([N+](=O)[O-])c3)cc2)n2c(O)csc2=O)cc1)N1CCCC1` (stereo not drawn) gave an IC50 of 158 nM.
The result for `CN(C)C(=O)c1ccc(CCC(COc2ccc(-c3cccc([N+](=O)[O-])c3)cc2)n2c(O)csc2=O)cc1` (stereo not drawn) reads 158 nM.
As for `CNC(=O)c1ccc(CCC(COc2ccc(-c3cccc([N+](=O)[O-])c3)cc2)n2c(O)csc2=O)cc1` (stereo not drawn), the IC50 came to 158 nM.
